In patent US20230081679A1, “SURFACTANT VESICLES FOR VACCINE FORMULATION, TARGETED DRUG DELIVERY, AND TRANSFECTION” (University of Maryland, College Park, priority 2021, published 2023):
Like-named read-outs stand apart in the source and are kept apart here. {BHQ2} = Black Hole Quencher 2; {FAM} = fluorescein

Assays:
[1] = tested on: DNase I; experiment: DNase I Protection Assay; details: 25° C. or 37° C., intact vesicles
Description: FIG. 10. […] Vesicle-incorporated fluorescently-quenched 20 bp DNA duplexes were subjected to DNase I cleavage at 25° C. (A) or 37° C. (B) before (intact) and after (broken) freeze/thaw cycles to promote vesicle rupturing. […] Variation in overall fluorescent intensity in the ruptured samples reflect the variability in vesicle rupture and reformation during the freeze/thaw process.
DNase I Protection Assay: Intact DNA duplex loaded vesicles were added to reaction buffer containing 2.5 mM magnesium chloride, 0.5 mM calcium chloride, and 1× PBS. DNase I (Thermo Fisher Scientific, Waltham, Mass.) was added to a final concentration of 0.005 U/μL and the reaction was monitored by fluorescence (excitation at 494 nm, emission 521 nm) collected on SpectraMax M5 Microplate Reader (Molecular Devices, San Jose, Calif.) over 3 h at 25° C. or 37° C. Broken vesicles were prepared by 3 freeze thaw cycles of 10 min at −80° C. and 2 min at RT. Following the freeze thaw procedure, the samples equilibrated at RT for 30 min and were used in the assay as described above.

[2] = Drug pKa and solubility in buffer; format: physicochemical
[3] = saline at 37° C.; cited from earlier work
[4] = Conversion of carboplatin in PBS 1×; format: physicochemical; details: 40 mM in PBS 1×, 48 h, room temperature
[5] = Description: To assess the rate of encapsulated substrate release, dialysis was initially considered. […] The assay was to remove aliquots from SVs-encapsulated formulations at time intervals and re-purify the aliquot by size-exclusion chromatography (SEC). Vesicle fractions elute in the initial fractions while release carbohydrate is retained on the column and elutes in the later fractions. The quantity of carbohydrate released was determined by ^1H-NMR (FIG. 28).
Using the SEC method, the initial rate of glucose release was analyzed for vesicle encapsulated glucose solutions at varying concentrations. […] Therefore, a simple model with first-order release kinetics across the vesicle membrane (Eq. 1) was used, from which the rate law (Eq. 2) can be derived, where [Sugar]in and [Sugar]out are the sugar concentrations inside and outside the vesicle, respectively.
The release for each vesicle-encapsulated sugar preparation was monitored for at least two half-lives (monosaccharides) and at least one half-life (disaccharides and maltotriose). The release profile for each substrate was then fit to Eq. 3 by a least squares method, and the first order rate constant k1 was calculated. The reported uncertainties represent the standard deviation in the measured k1 of three separate batches of vesicle-encapsulated sugar.
The t1/2 was calculated from each k1, and the permeability coefficient (P) was calculated using k1 and the vesicle size (from DLS experiments) according to: […]

[6] = Vesicle radius and PDI by DLS
Description: To measure the average size of the vesicles, 100 μL of the solution was taken and diluted to 1 mL with water and analyzed using dynamic light scattering (DLS).

[7] = Encapsulation in catanionic SVs (gel filtration, then NMR or ICP-AES); format: physicochemical
Description: Vesicles were formed in the presence of several different sugars, purified by gel filtration, and the encapsulated sugar concentration measured by NMR (Table 3).
Table 6 summarizes the EE and drug concentration achieved with each of the chemotherapeutic agents under the standard SDBS-rich SVs formulation method.
The gel was flushed with two column-volumes of PBS 1×. Next, 1.0 mL of crude vesicle suspension was loaded onto the column and gravity fed into the gel. 2.0 mL of PBS 1× eluent was then added to the column and the fractions discarded. 1.5 mL of PBS 1× was then added to the column and the fractions collected to yield purified opaque light blue vesicles. The column was cleaned with 2.0 mL of 0.1% Triton X-100 in water followed by two column volumes of PBS 1×.

[8] = drug release from catanionic SVs, PBS 1×
[9] = chemotherapeutic drugs in SDBS-rich SVs, PBS 1×
[10] = sugar vesicles, 250 mM cellobiose, PBS 1×, after 24 h
[11] = 250 mM cellobiose instead of 500 mM, PBS 1×
[12] = 25° C., PBS 1× pH 7.4, 60:40 w/w SDBS rich vesicles, 500 mM sugar
[13] = sugar vesicles, 500 mM sugar, PBS 1×, after 24 h
[14] = prepared in 500 mM sugar, PBS 1×
[15] = sugar vesicles, 100 mM glucosamine, PBS 1×, after 24 h
[16] = 100 mM glucosamine instead of 500 mM, PBS 1×
[17] = sugar vesicles, deionized water instead of PBS 1×, after 24 h
[18] = 500 mM sugar, deionized water instead of PBS 1×

Q: For “20 bp DNA duplexes: fluorescently-quenched 20 bp DNA duplexes (SEQ ID NO:3 and 4), vesicle-incorporated (chain 1 ACCCTACGTATCGGTCAGTC; chain 2 GACTGACCGATACGTAGGGT; chain 1: DNA, 3' {FAM}, backbone and methylation of C not given here; chain 2: DNA, 5' {BHQ2}, backbone and methylation of C not given here)”, which “protection from DNase I cleavage, vesicle-incorporated” value [1] is on record?
A: protected from nuclease digestion

Q: Which results are given for N.N.O=C([O-])C1(C(=O)[O-])CCC1.[Pt+2] [Carboplatin, carboplatin]?
A: solubility (concentration in buffer) [2]: 40 mM; kobs of ligand exchange [3]: 7.7e-07 s⁻¹; t1/2 of ligand exchange [3]: ≈ 10 days; converted to cisplatin [4]: 2%; remained unreacted [4]: 93%; leaked out of the vesicles ([5]; at the 48 h mark): over 50%; First Order Rate Constant k [5, 8]: 0.039 ± 0.004 h⁻¹; fold slower release than cisplatin ([5]; release from SVs): 20 fold; fold slower release than glucose ([5]; release from SVs): 3 fold; Vesicle PDI ([6]; drug-loaded catanionic SVs): 0.19; Vesicle Radius (nm) ([6]; drug-loaded catanionic SVs): 74 nm; EE (%) [7, 9]: 1.9%; [Drug], mM (in purified vesicles) [7, 9]: 0.5 ± 0.1 mM

Q: Which results are given for N.N.[Cl][Pt][Cl] [Cisplatin, cisplatin]?
A: First Order Rate Constant k [5, 8]: 0.78 ± 0.06 h⁻¹; Vesicle PDI ([6]; drug-loaded catanionic SVs): 0.16; Vesicle Radius (nm) ([6]; drug-loaded catanionic SVs): 76 nm; EE (%) [7, 9]: 2.1%; [Drug], mM (in purified vesicles) [7, 9]: 0.05 ± 0.01 mM

Q: Which results are given for OC[C@H]1O[C@@H](O[C@H]2[C@H](O)[C@@H](O)[C@H](O)O[C@@H]2CO)[C@H](O)[C@@H](O)[C@@H]1O [D-cellobiose]?
A: Second Order Rate Constant k’ ([5]; 25° C., PBS 1×, 60:40 w/w SDBS:CTAT, 1% w/w total surfactant): 0.000722 ± 0.00014 M⁻¹ s⁻¹; Vesicle PDI [6, 10]: 0.15; Vesicle Radius (nm) [6, 10]: 90 nm; EE (%) [7, 11]: 1.2%; [Sugar], mM (in purified vesicles) [7, 11]: 2.0 ± 0.4 mM

Q: For O=C[C@H](O)[C@@H](O)[C@@H](O)[C@H](O)CO [D-galactose], which “First Order Rate Constant k” value [5, 12] is on record?
A: 0.16 ± 0.02 h⁻¹

Q: And the “Vesicle PDI” value [6, 13]?
A: 0.20

Q: And the “Vesicle Radius (nm)” value [6, 13]?
A: 83 nm

Q: What about the “EE (%)” value [7, 14] of the same molecule?
A: 0.82%

Q: What about the “[Sugar], mM (in purified vesicles)” value [7, 14] of the same molecule?
A: 2.7 ± 0.7 mM

Q: Which results are given for O=S(=O)(O)N[C@H]1C(O)O[C@H](CO)[C@@H](O)[C@@H]1O (stereo partly drawn) [D-glucosamine-2-sulfate]?
A: First Order Rate Constant k [5, 12]: 0.29 ± 0.06 h⁻¹; Vesicle PDI [6, 13]: 0.06; Vesicle Radius (nm) [6, 13]: 69 nm; EE (%) [7, 14]: 1.0%; [Sugar], mM (in purified vesicles) [7, 14]: 3.3 ± 0.7 mM

Q: What does the source list for N[C@H]1C(O)O[C@H](CO)[C@@H](O)[C@@H]1O (stereo partly drawn) [D-glucosamine]?
A: First Order Rate Constant k ([5]; 25° C., PBS 1× pH 7.4, 100 mM sugar concentration): 0.11 ± 0.01 h⁻¹; Vesicle PDI [6, 15]: 0.23; Vesicle Radius (nm) [6, 15]: 78 nm; EE (%) [7, 16]: 3.5%; [Sugar], mM (in purified vesicles) [7, 16]: 2.3 ± 0.2 mM

Q: Which results are given for O=C[C@H](O)[C@@H](O)[C@H](O)[C@H](O)CO [D-glucose]?
A: First Order Rate Constant k [5, 12]: 0.12 ± 0.03 h⁻¹; First Order Rate Constant k ([5]; 25° C., in water instead of PBS 1×, 500 mM sugar): 0.12 ± 0.05 h⁻¹; slope of ln starting concentration vs ln initial release rate ([5]; vesicles prepared in 0.1, 0.2 and 0.5 M glucose): 1.1±0.2; Vesicle PDI [6, 13]: 0.17; Vesicle Radius (nm) [6, 13]: 75 nm; Vesicle PDI [6, 17]: 0.40; Vesicle Radius (nm) [6, 17]: 178 nm; EE (%) [7, 18]: 0.67%; [Sugar], mM (in purified vesicles) [7, 18]: 2 ± 1 mM; EE (%) [7, 14]: 1.1%; [Sugar], mM (in purified vesicles) [7, 14]: 3.7 ± 0.8 mM; EE ([7]; vesicles prepared in 0.1 M glucose): 1.9%
